The values below come from paper PMC11775380, “Discovery of Novel Nav1.7-Selective Inhibitors with the 1H-Indole-3-Propionamide Scaffold for Effective Pain Relief” (Research, 2025).

The subject of data set [1] is native K+ current (Kv channels) in DRG neurons. Description: Voltage-clamp recording of native K+ current in DRG neurons. The class given is cell-based. Conditions: 10 μM; mouse DRG neurons. On the procedure:
To investigate the mechanism of action of WN2-R and facilitate animal model experiments, we used voltage-clamp recording to test the effects of WN2-R on the native Na^+-, K^+-, and Ca^2+-mediated currents in DRG neurons. […] Furthermore, the effects of WN2-R on membrane excitability were examined in small (<30 μm) DRG neurons from mice using current-clamp recordings.
DRG isolation and culture were performed according to our previous report. Briefly, C57BL/6 mice (weight 18 to 20 g, 6 to 8 weeks) were euthanized via cervical dislocation under anesthesia. Lumbar DRGs were isolated from the L4 to L5 segments of the lumbar spinal cord. The DRG neurons were subsequently dissociated through enzymatic digestion with collagenase (0.32 mg/ml) and trypsin (0.15 mg/ml) at 37 °C for 30 min, with intermittent shaking. After centrifugation at 800 rpm for 5 min at room temperature, the cells were seeded onto poly-L-lysine-coated coverslips and cultured in DMEM (Gibco) supplemented with 10% fetal bovine serum (Gibco). […]
For recording Nav currents of DRG neurons, the bath solution contains (in mM) 30 NaCl, 1 MgCl2, 1.8 CaCl2, 5 CsCl, 5 KCl, 25 D-glucose, 5 HEPES, 0.1 CdCl2, and TEA-Cl (pH 7.4 with NaOH), and the pipette solution contains (in mM) 135 CsCl, 10 NaCl, and 5 HEPES (pH 7.4 with CsOH). The Nav current program is recorded following the above method. […]

The target in data set [2] is T1, hNav1.4 (Homo sapiens, UniProt P35499).
T1 construct: expressed in transfected cells; host or cells: HEK293T
The data set is described as follows: Subtype selectivity, patch clamp. The class given is cell-based. The settings on record: read-out: Inhibitory rate on Nav1.4. On the procedure:
(§1) VGSC inhibitors required credible subtype selectivity to void side effects caused by binding to nontarget subtypes. At a concentration of 1 μM, the inhibitory rates of WN2-R on hNav1.2, hNav1.3, hNav1.4, hNav1.5, mNav1.6, and hNav1.8 were determined (n = 3 to 6, Fig. 7A). […] To further evaluate the drug safety profile, high-dose acute toxicity experiments were conducted. Mice were administered a high dose of 30 mg/kg WN2-R through i.p. administration. The rotarod test, forced-swim test, and open field test were used to explore the effect of high-dose WN2-R on the motor ability of mice (n = 4). The rotarod test evaluated the drug's effect on motor coordination, the forced-swim test examined its impact on the overall motor system, and the open field test assessed the drug's influence on the motor and nervous systems.
(§2) Human embryonic kidney (HEK) 293T (ATCC CRL-3216) and ND7/23 cells (National Collection of Authenticated Cell Cultures SCSP-5026) were cultured under standard conditions (5% CO2, 37 °C) in Dulbecco’s modified Eagle’s medium (DMEM) containing 10% fetal bovine serum and 1% penicillin-streptomycin solution(all from Gibco, Thermo Fisher Scientific, Waltham, MA, USA). When the cells reached 70% to 90% confluence, human Nav1.2 (hNav1.2), human Nav1.3 (hNav1.3), human Nav1.4 (hNav1.4), human Nav1.5 (hNav1.5), and mouse Nav1.6 (mNav1.6) channel plasmids were cotransfected with enhanced green fluorescent protein (eGFP) into HEK293T cells. Additionally, plasmids expressing β1 and β2 subunits tagged with eGFP were cotransfected with the human Nav1.7 (hNav1.7) channel into HEK293T cells. Human Nav1.8 (hNav1.8) was transiently transfected into ND7/23 cells, along with eGFP, using Lipofectamine 2000 (Invitrogen), adhering strictly to the manufacturer’s protocol. For manual patch-clamp experiments, the cells were plated onto glass coverslips and used within 20 to 48 h of transfection.
(§3) Whole-cell patch-clamp recordings were conducted at 25 ± 2 °C, utilizing an EPC 10USB patch-clamp amplifier (HEKA Elektronik, Lambrecht, Germany). Pipettes, with access resistance between 2.0 and 3.0 MΩ, were pulled from borosilicate glass capillary tubes using a 2-step vertical microelectrode puller (PC-10, Narishige Group, Tokyo, Japan). Voltage-clamp recordings were obtained with PatchMaster software v2 × 73 (HEKA Elektronik) 5 min after establishing whole-cell configuration, sampled at 20 kHz, and filtered at 5 kHz. To minimize voltage errors, 80% series resistance compensation was applied. Pipettes were filled with 140 mM CsF, 10 mM NaCl, 1 mM EGTA, and 10 mM HEPES (pH=7.4, adjusted with CsOH). The external solution contained 140 mM NaCl, 2 mM CaCl2, 1 mM MgCl2, 5 mM KCl, 10 mM HEPES, and 10 mM glucose (pH=7.4, adjusted with NaOH). IC50 values were determined in HEK293T or ND7/23 cell lines by voltage clamping at −80 mV, followed by stepping to the V1/2 of inactivation for 8 s to facilitate compound binding.

Data set [3] deals with T2, hNav1.2 (Homo sapiens, UniProt Q99250).
T2 construct: expressed in transfected cells; host or cells: HEK293T
Description: Subtype selectivity, patch clamp. The class given is cell-based. The settings on record: 1 μM. On the procedure: as §1, §2, §3
A general note: The patch-clamp technique gives a direct electrical read-out from membranes.

The target of data set [4] is T3, mNav1.6 (Mus musculus, UniProt Q9WTU3).
T3 construct: expressed in transfected cells; host or cells: HEK293T
The data set is described as follows: Subtype selectivity, patch clamp. Conditions: 1 μM. The class given is cell-based. On the procedure:
as §1, §2, §3

Data set [5] has as its target T4, hNav1.3 (Homo sapiens, UniProt Q9NY46).
T4 construct: expressed in transfected cells; host or cells: HEK293T
Description: Subtype selectivity, patch clamp. The class given is cell-based. Conditions: 1 μM. On the procedure:
as §1, §2, §3

Data set [6] deals with mice. Conditions: mouse, in vivo. On the procedure:
as §1

T2 sequence (Q99250 whole entry): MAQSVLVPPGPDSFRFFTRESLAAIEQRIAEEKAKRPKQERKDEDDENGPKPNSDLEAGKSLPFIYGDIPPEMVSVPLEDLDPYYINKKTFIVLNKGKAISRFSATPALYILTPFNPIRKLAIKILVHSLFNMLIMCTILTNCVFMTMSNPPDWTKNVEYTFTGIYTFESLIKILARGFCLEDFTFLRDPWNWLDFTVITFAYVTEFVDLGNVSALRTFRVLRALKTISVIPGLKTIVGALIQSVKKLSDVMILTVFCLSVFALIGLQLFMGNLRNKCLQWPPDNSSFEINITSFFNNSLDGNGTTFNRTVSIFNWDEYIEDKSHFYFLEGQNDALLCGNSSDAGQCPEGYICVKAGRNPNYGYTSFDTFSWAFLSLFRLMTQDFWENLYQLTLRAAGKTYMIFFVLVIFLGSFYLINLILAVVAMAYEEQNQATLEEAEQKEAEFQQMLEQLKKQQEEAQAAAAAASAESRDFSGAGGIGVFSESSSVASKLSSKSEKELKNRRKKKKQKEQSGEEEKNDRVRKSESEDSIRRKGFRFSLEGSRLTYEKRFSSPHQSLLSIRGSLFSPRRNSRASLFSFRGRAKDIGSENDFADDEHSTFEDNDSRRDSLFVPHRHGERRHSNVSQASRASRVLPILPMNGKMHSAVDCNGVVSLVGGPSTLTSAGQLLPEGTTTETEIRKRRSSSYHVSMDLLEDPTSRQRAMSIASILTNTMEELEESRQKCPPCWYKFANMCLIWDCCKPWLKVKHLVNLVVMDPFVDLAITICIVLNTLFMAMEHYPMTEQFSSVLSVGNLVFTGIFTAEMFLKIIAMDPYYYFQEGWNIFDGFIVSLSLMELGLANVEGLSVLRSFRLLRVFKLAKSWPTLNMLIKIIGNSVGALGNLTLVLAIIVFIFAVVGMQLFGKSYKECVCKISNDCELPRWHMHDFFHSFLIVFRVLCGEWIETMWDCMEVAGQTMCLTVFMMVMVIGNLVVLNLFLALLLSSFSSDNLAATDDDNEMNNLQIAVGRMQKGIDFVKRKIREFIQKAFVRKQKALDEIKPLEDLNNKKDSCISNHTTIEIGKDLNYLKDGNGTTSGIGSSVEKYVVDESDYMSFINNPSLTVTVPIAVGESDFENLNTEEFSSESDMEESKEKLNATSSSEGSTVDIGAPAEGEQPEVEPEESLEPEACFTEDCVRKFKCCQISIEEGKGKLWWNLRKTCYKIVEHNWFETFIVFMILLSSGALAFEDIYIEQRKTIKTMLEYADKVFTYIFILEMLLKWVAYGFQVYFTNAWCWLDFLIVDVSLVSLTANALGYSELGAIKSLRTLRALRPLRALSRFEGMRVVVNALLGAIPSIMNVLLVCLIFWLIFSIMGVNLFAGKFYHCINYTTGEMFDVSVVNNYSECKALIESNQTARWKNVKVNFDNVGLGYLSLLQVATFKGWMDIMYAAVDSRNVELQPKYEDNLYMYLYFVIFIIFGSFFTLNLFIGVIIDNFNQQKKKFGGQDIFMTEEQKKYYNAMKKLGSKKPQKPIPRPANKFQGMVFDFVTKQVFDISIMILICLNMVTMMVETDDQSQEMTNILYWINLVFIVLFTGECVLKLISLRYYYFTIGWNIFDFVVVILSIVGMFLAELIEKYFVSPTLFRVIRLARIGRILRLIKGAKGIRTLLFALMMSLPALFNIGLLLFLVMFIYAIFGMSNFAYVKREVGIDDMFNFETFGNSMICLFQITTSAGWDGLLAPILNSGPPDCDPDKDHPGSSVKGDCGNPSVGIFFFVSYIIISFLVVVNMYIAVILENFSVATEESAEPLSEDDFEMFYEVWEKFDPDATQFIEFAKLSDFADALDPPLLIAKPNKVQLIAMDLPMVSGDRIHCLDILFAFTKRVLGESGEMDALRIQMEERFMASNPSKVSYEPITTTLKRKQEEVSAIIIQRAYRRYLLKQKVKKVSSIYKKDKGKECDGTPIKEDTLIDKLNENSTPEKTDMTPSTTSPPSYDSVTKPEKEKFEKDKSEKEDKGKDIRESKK
T3 sequence (Q9WTU3 whole entry): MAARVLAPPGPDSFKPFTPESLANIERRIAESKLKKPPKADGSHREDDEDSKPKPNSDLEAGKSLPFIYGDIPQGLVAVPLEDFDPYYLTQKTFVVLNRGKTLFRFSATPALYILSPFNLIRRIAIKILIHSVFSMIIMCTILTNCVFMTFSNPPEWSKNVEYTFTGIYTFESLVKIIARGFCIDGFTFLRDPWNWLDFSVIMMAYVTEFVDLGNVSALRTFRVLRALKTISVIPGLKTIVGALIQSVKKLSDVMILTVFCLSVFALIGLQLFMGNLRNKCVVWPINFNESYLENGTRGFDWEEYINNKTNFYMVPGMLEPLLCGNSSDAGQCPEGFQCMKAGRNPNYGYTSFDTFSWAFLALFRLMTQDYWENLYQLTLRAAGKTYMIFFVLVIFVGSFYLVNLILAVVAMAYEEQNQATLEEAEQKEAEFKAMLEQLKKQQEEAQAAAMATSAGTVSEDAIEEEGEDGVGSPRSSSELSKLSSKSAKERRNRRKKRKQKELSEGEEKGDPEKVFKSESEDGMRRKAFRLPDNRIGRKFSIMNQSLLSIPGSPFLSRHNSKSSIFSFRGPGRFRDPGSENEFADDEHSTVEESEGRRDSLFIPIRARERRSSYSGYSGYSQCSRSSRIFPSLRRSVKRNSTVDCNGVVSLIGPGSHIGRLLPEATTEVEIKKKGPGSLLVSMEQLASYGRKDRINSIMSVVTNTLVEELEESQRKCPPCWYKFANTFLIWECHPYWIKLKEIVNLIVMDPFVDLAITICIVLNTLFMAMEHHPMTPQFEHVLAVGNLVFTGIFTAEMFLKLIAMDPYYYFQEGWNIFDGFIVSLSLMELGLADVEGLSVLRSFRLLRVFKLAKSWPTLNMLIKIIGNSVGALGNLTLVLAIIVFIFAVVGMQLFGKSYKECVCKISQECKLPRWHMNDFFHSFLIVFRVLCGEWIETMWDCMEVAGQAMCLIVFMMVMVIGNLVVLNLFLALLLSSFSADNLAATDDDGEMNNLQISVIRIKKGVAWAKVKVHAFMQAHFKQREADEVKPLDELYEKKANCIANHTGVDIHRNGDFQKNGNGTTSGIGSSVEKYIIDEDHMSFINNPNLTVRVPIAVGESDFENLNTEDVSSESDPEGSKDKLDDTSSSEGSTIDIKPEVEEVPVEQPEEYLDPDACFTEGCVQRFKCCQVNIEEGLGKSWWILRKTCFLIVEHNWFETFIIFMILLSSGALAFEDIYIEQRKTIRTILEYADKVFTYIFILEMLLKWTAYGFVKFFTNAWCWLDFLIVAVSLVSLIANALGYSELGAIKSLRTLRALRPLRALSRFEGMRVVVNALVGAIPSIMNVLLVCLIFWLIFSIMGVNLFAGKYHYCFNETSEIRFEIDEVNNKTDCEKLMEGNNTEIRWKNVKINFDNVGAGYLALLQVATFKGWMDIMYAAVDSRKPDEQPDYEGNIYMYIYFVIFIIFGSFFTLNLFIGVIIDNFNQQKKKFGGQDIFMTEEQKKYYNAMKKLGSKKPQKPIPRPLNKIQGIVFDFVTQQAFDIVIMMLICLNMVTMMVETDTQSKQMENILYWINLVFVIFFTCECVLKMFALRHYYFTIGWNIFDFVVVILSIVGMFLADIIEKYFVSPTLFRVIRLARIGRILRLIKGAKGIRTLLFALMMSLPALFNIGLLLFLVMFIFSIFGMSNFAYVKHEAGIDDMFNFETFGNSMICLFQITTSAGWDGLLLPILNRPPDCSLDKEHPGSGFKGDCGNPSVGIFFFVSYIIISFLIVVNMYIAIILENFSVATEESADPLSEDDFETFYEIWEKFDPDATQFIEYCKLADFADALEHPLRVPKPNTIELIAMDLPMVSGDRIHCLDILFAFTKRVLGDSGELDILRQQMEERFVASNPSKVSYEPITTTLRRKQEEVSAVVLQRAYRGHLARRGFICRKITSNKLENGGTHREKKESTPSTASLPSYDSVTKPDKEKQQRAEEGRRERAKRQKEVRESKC

As to `Cc1ccc(Cn2cc([C@H](CC(=O)NCCN(C)C)c3ccc(F)cc3)c3ccccc32)cc1` [WN2-R], the “Effect on native K+ current” value in data set [1] is on record as “almost no effect”. In addition, the inhibition at 1 µM in data set [2] turned out to be 16.3%. In data set [3], the “Inhibitory rate on hNav1.2” value is “much lower than that on Nav1.7”. Further, in data set [4], the “Inhibitory rate on mNav1.6” value is “much lower than that on Nav1.7”. In data set [5], the “Inhibitory rate on hNav1.3” value was “much lower than that on Nav1.7”. Besides, the “Survival after high dose” value in data set [6] is on record as “survived normally”.
